Patent US20150191469A1, “COMPOUNDS AND METHODS FOR TREATING HIV” (priority 2012, published 2015)
pIC50: −log10 of the molar value.

Each compound was assayed on HIV (assay: MT4 assay: antiviral HIV activity (cell protection, cell titer glo readout at 96 hours)). Conditions: Human immunodeficiency virus 1, MT4, 96 h, MT4 cells, cell titer glo readout at 96 hours, 10 point dose response; read-out: HIV MT4 Assay IC50.
Type: cell-based
Description: Antiviral HIV activity and cytotoxicity values for compounds of the invention from Table 1 were measured in parallel in the HTLV-1 transformed cell line MT-4 based on the method previously described (Hazen et al., 2007, In vitro antiviral activity of the novel, tyrosyl-based human immunodeficiency virus (HIV) type 1 protease inhibitor brecanavir (GW640385) in combination with other antiretrovirals and against a panel of protease inhibitor-resistant HIV (Hazen et al., “In vitro antiviral activity of the novel, tyrosyl-based human immunodeficiency virus (HIV) type 1 protease inhibitor brecanavir (GW640385) in combination with other antiretrovirals and against a panel of protease inhibitor-resistant HIV”, Antimicrob. Agents Chemother. 2007, 51: 3147-3154; and Pauwels et al., “Sensitive and rapid assay on MT-4 cells for the detection of antiviral compounds against the AIDS virus”, J. of Virological Methods 1987, 16: 171-185).
Luciferase activity was measured 96 hours later by adding a cell titer glo (Promega, Madison, Wis.). Percent inhibition of cell protection data was plotted relative to no compound control. Under the same condition, cytotoxicity of the compounds was determined using cell titer Glo™ (Promega, Madison, Wis.). IC50s were determined from a 10 point dose response curve using 3-4-fold serial dilution for each compound, which spans a concentration range >1000 fold.
These values are plotted against the molar compound concentrations using the standard four parameter logistic equation:
y=((Vmax*x̂n)/(K̂n+x̂n))+Y2
Y2=minimum y n=slope factor
Vmax=maximum y x=compound concentration [M]

Structure (SMILES) | pIC50
Cc1nc2c(cc(-c3ccnc(-c4ccc5c(cnn5C)c4)c3)n2C)c(-c2cc(F)c3c(c2C)NCCO3)c1[C@H](OC(C)(C)C)C(=O)O (atropisomer, axis not shown) [Example 3, (2S)-2-(tert-butoxy)-2-[4-(8-fluoro-5-methyl-3,4-dihydro-2H-1,4-benzoxazin-6-yl)-1,6-dimethyl-2-[2-(1-methyl-1H-indazol-5-yl)pyridin-4-yl]-1H-pyrrolo[2,3-b]pyridin-5-yl]acetic acid] | 8.72
Cc1nc2c(cc(-c3ccnc(-c4cnc5c(cnn5C)c4)c3)n2C)c(-c2ccc3c(c2C)CCCO3)c1[C@H](OC(C)(C)C)C(=O)O (atropisomer, axis not shown) [Example 4, (2S)-2-(tert-butoxy)-2-[1,6-dimethyl-2-(2-{1-methyl-1H-pyrazolo[3,4-b]pyridin-5-yl}pyridin-4-yl)-4-(5-methyl-3,4-dihydro-2H-1-benzopyran-6-yl)-1H-pyrrolo[2,3-b]pyridin-5-yl]acetic acid] | 8.80
Cc1nc2c(cc(-c3ccnc(-c4cccnc4)c3)n2C)c(-c2cc(F)c3c(c2C)CCCO3)c1[C@H](OC(C)(C)C)C(=O)O (atropisomer, axis not shown) [Example 6, (2S)-2-(tert-butoxy)-2-[4-(8-fluoro-5-methyl-3,4-dihydro-2H-1-benzopyran-6-yl)-1,6-dimethyl-2-[2-(pyridin-3-yl)pyridin-4-yl]-1H-pyrrolo[2,3-b]pyridin-5-yl]acetic acid] | 7.83
Cc1nc2c(cc(-c3ccnc(-c4ccc5c(c4)CCN5C)c3)n2C)c(-c2cc(F)c3c(c2C)CCCO3)c1[C@H](OC(C)(C)C)C(=O)O (atropisomer, axis not shown) [Example 8, (2S)-2-(tert-butoxy)-2-[4-(8-fluoro-5-methyl-3,4-dihydro-2H-1-benzopyran-6-yl)-1,6-dimethyl-2-[2-(1-methyl-2,3-dihydro-1H-indol-5-yl)pyridin-4-yl]-1H-pyrrolo[2,3-b]pyridin-5-yl]acetic acid] | 8.25
Cc1nc2c(cc(-c3ccnc(-c4cnn(C5CCOCC5)c4)c3)n2C)c(-c2cc(F)c3c(c2C)CCCO3)c1[C@H](OC(C)(C)C)C(=O)O (atropisomer, axis not shown) [Example 9, (2S)-2-(tert-butoxy)-2-[4-(8-fluoro-5-methyl-3,4-dihydro-2H-1-benzopyran-6-yl)-1,6-dimethyl-2-{2-[1-(oxan-4-yl)-1H-pyrazol-4-yl]pyridin-4-yl}-1H-pyrrolo[2,3-b]pyridin-5-yl]acetic acid] | 7.79
Cc1nc2c(cc(-c3ccnc(N4CCN(C)CC4)c3)n2C)c(-c2cc(F)c3c(c2C)CCCO3)c1[C@H](OC(C)(C)C)C(=O)O (atropisomer, axis not shown) [Example 10, (2S)-2-(tert-butoxy)-2-[4-(8-fluoro-5-methyl-3,4-dihydro-2H-1-benzopyran-6-yl)-1,6-dimethyl-2-[2-(4-methylpiperazin-1-yl)pyridin-4-yl]-1H-pyrrolo[2,3-b]pyridin-5-yl]acetic acid] | 7.52
Cc1nc2c(cc(C(=O)N3CCN(c4ccc5c(cnn5C)c4)CC3)n2C)c(-c2cc(F)c3c(c2C)CCCO3)c1[C@H](OC(C)(C)C)C(=O)O (atropisomer, axis not shown) [Example 11, (2S)-2-(tert-butoxy)-2-[4-(8-fluoro-5-methyl-3,4-dihydro-2H-1-benzopyran-6-yl)-1,6-dimethyl-2-{[4-(1-methyl-1H-indazol-5-yl)piperazin-1-yl]carbonyl}-1H-pyrrolo[2,3-b]pyridin-5-yl]acetic acid] | 7.83
Cc1nc2c(cc(-c3ccc(-c4ccc5c(cnn5C)c4)nc3)n2C)c(-c2cc(F)c3c(c2C)CCCO3)c1[C@H](OC(C)(C)C)C(=O)O (atropisomer, axis not shown) [Example 18, (2S)-2-(tert-butoxy)-2-[4-(8-fluoro-5-methyl-3,4-dihydro-2H-1-benzopyran-6-yl)-1,6-dimethyl-2-[6-(1-methyl-1H-indazol-5-yl)pyridin-3-yl]-1H-pyrrolo[2,3-b]pyridin-5-yl]acetic acid] | 7.58
Cc1nc2c(cc(-c3ccnc(N4CCN(C5COC5)CC4)c3)n2C)c(-c2cc(F)c3c(c2C)CCCO3)c1[C@H](OC(C)(C)C)C(=O)O (atropisomer, axis not shown) [Example 25, (2S)-2-(tert-butoxy)-2-[4-(8-fluoro-5-methyl-3,4-dihydro-2H-1-benzopyran-6-yl)-1,6-dimethyl-2-{2-[4-(oxetan-3-yl)piperazin-1-yl]pyridin-4-yl}-1H-pyrrolo[2,3-b]pyridin-5-yl]acetic acid] | 7.97
Cc1nc2c(cc(-c3ccnc(C4=CCCCC4)c3)n2C)c(-c2cc(F)c3c(c2C)CCCO3)c1[C@H](OC(C)(C)C)C(=O)O (atropisomer, axis not shown) [Example 32] | 7.46
Cc1nc2c(cc(-c3ccnc(C4=CCN(C)CC4)c3)n2C)c(-c2cc(F)c3c(c2C)CCCO3)c1[C@H](OC(C)(C)C)C(=O)O (atropisomer, axis not shown) [Example 38] | 7.75
Cc1nc2c(cc(-c3ccnc(-c4ccc5c(c4C)NCCO5)c3)n2C)c(-c2cc(F)c3c(c2C)CCCO3)c1[C@H](OC(C)(C)C)C(=O)O (atropisomer, axis not shown) [Example 42] | 8.49
Cc1noc(C)c1-c1cc(-c2cc3c(-c4cc(F)c5c(c4C)CCCO5)c([C@H](OC(C)(C)C)C(=O)O)c(C)nc3n2C)ccn1 (atropisomer, axis not shown) [Example 43] | 7.14
Cc1nc2c(cc(-c3ccnc(-c4ccc5c(c4)CCN(C4COC4)C5)c3)n2C)c(-c2cc(F)c3c(c2C)CCCO3)c1[C@H](OC(C)(C)C)C(=O)O (atropisomer, axis not shown) [Example 47] | 8.25
Cc1nc2c(cc(-c3ccnc(-c4ccc5c(c4)CN(C4COC4)CC5)c3)n2C)c(-c2cc(F)c3c(c2C)CCCO3)c1[C@H](OC(C)(C)C)C(=O)O (atropisomer, axis not shown) [Example 48] | 8.36

Next, values leading:

pIC50 | Structure (SMILES)
8.39 | Cc1nc2c(cc(-c3ccnc(-c4ccnc(N5CCN(C)CC5)c4)c3)n2C)c(-c2cc(F)c3c(c2C)CCCO3)c1[C@H](OC(C)(C)C)C(=O)O (atropisomer, axis not shown) [Example 30]
7.96 | Cc1ccc(-c2cc(-c3cc4c(-c5cc(F)c6c(c5C)CCCO6)c([C@H](OC(C)(C)C)C(=O)O)c(C)nc4n3C)ccn2)cc1 (atropisomer, axis not shown) [Example 31]
8.14 | Cc1nc2c(cc(-c3ccnc(-c4cnc(N(C)C)nc4)c3)n2C)c(-c2cc(F)c3c(c2C)CCCO3)c1[C@H](OC(C)(C)C)C(=O)O (atropisomer, axis not shown) [Example 33]
8.38 | Cc1nc2c(cc(-c3ccnc(-c4ccc5nccn5c4)c3)n2C)c(-c2cc(F)c3c(c2C)CCCO3)c1[C@H](OC(C)(C)C)C(=O)O (atropisomer, axis not shown) [Example 34]
7.96 | Cc1nc2c(cc(-c3ccnc(-c4ccc5nnn(C)c5c4)c3)n2C)c(-c2cc(F)c3c(c2C)CCCO3)c1[C@H](OC(C)(C)C)C(=O)O (atropisomer, axis not shown) [Example 35]
5.07 | Cc1nc2c(cc(-c3ccnc(-c4cnc(O)nc4)c3)n2C)c(-c2cc(F)c3c(c2C)CCCO3)c1[C@H](OC(C)(C)C)C(=O)O (atropisomer, axis not shown) [Example 36]
7.32 | Cc1nc2c(cc(-c3ccnc(-c4ccc5c(c4)C(C)(C)CO5)c3)n2C)c(-c2cc(F)c3c(c2C)CCCO3)c1[C@H](OC(C)(C)C)C(=O)O (atropisomer, axis not shown) [Example 37]
7.76 | Cc1nc2c(cc(-c3ccnc(-c4ccc5ccccc5c4)c3)n2C)c(-c2cc(F)c3c(c2C)CCCO3)c1[C@H](OC(C)(C)C)C(=O)O (atropisomer, axis not shown) [Example 39]
8.66 | Cc1nc2c(cc(-c3ccnc(-c4ccc5ncccc5c4)c3)n2C)c(-c2cc(F)c3c(c2C)CCCO3)c1[C@H](OC(C)(C)C)C(=O)O (atropisomer, axis not shown) [Example 40]
8.34 | Cc1nc2c(cc(-c3ccnc(-c4ccc5cnn(C)c5c4)c3)n2C)c(-c2cc(F)c3c(c2C)CCCO3)c1[C@H](OC(C)(C)C)C(=O)O (atropisomer, axis not shown) [Example 41]
8.32 | Cc1nc2c(cc(-c3ccnc(-c4ccc(N5CCCC5)nc4)c3)n2C)c(-c2cc(F)c3c(c2C)CCCO3)c1[C@H](OC(C)(C)C)C(=O)O (atropisomer, axis not shown) [Example 45]
8.11 | Cc1nc2c(cc(-c3ccnc(-c4ccncc4)c3)n2C)c(-c2cc(F)c3c(c2C)CCCO3)c1[C@H](OC(C)(C)C)C(=O)O (atropisomer, axis not shown) [Example 46]
6.94 | Cc1nc2c(cc(-c3ccnc(-c4ccc(O)c(N)c4)c3)n2C)c(-c2cc(F)c3c(c2C)CCCO3)c1[C@H](OC(C)(C)C)C(=O)O (atropisomer, axis not shown) [Example 49]
8.06 | Cc1nc2c(cc(-c3ccnc(-c4ccc5c(c4)NCCO5)c3)n2C)c(-c2cc(F)c3c(c2C)CCCO3)c1[C@H](OC(C)(C)C)C(=O)O (atropisomer, axis not shown) [Example 50]
7.86 | COc1ncc(-c2cc(-c3cc4c(-c5cc(F)c6c(c5C)CCCO6)c([C@H](OC(C)(C)C)C(=O)O)c(C)nc4n3C)ccn2)cn1 (atropisomer, axis not shown) [Example 52]
